# Laboratory results reported in paper PMC7481406, “Bifunctional supramolecular nanofiber inhibits atherosclerosis by enhancing plaque stability and anti-inflammation in apoE^-/- mice” (Theranostics, 2020).
# Where a SMILES comes first, the peptide text is derived from it. [ ]: non-standard residue; d: D form. The star is where a group is joined. Naproxen = COc1ccc2cc([C@H](C)C(=O)*)ccc2c1; Acetyl(2-naphthyl) = O=C(Cc1ccc2ccccc2c1)*
# Legend:
# [1] = Body weight and serum lipid profile; type: in vivo, mouse; settings: for HDL-C / LDL-C / TG (triglyceride) / Total-C (serum total cholesterol): serum
# Text: (§1) All animal studies were approved by the Animal Ethics Committee of Nankai University and followed the Tianjin Committee of Use and Care of Laboratory Animals. Male apoE^‑/‑ mice (~22 g bodyweight, ~8 weeks old) were purchased from the Beijing Vital River Laboratory Animal Technology Co., Ltd, which were used to set up the atherosclerotic model, as previously described. ApoE^-/- mice were randomly assigned into six groups (15 per group) and fed with HFD (21% fat plus 0.5% cholesterol; Mediscience, Ltd, Jiangsu, China; Cat No. MD12015A) for 16 weeks. […] At the end of the experiment, all mice were euthanatized by an overdose of 2,2,2-tribromoethanol (640 mg/kg, IP injection), followed by collection of aortas, blood, and peritoneal macrophages. Serum was prepared to determine levels of TNF-α, IL-1β and IL-6 by ELISA kits purchased from ABclonal, Inc. (Wuhan, China). The en face aortas were used to prepare aortic root cross sections followed by determination of en face and sinus lesions with Oil Red O staining. All the images were obtained with a microscope and quantified lesion areas in en face aorta by a computer-assisted image analysis protocol (Photoshop CS6). Necrotic core area, fibrous cap area, expression of MOMA-2, CD68, and α-SMA protein in lesion were determined by H&E and immunofluorescent staining with aortic root cross sections.
# [2] = target: recombinant human Insulin-like Growth Factor-I Receptor (rhIGF-1R) (Homo sapiens, UniProt P08069); assay: Microscale thermophoresis binding to rhIGF-1R; settings: for dissociated constant (KD) with rhIGF-1R: microscale thermophoresis, NT-647 labelled rhIGF-1R, PBS with 0.05% Tween 20 pH 7.4, compound 0.054 nM to 2 μM
# Sequence of recombinant human Insulin-like Growth Factor-I Receptor (rhIGF-1R) (P08069 31-1367): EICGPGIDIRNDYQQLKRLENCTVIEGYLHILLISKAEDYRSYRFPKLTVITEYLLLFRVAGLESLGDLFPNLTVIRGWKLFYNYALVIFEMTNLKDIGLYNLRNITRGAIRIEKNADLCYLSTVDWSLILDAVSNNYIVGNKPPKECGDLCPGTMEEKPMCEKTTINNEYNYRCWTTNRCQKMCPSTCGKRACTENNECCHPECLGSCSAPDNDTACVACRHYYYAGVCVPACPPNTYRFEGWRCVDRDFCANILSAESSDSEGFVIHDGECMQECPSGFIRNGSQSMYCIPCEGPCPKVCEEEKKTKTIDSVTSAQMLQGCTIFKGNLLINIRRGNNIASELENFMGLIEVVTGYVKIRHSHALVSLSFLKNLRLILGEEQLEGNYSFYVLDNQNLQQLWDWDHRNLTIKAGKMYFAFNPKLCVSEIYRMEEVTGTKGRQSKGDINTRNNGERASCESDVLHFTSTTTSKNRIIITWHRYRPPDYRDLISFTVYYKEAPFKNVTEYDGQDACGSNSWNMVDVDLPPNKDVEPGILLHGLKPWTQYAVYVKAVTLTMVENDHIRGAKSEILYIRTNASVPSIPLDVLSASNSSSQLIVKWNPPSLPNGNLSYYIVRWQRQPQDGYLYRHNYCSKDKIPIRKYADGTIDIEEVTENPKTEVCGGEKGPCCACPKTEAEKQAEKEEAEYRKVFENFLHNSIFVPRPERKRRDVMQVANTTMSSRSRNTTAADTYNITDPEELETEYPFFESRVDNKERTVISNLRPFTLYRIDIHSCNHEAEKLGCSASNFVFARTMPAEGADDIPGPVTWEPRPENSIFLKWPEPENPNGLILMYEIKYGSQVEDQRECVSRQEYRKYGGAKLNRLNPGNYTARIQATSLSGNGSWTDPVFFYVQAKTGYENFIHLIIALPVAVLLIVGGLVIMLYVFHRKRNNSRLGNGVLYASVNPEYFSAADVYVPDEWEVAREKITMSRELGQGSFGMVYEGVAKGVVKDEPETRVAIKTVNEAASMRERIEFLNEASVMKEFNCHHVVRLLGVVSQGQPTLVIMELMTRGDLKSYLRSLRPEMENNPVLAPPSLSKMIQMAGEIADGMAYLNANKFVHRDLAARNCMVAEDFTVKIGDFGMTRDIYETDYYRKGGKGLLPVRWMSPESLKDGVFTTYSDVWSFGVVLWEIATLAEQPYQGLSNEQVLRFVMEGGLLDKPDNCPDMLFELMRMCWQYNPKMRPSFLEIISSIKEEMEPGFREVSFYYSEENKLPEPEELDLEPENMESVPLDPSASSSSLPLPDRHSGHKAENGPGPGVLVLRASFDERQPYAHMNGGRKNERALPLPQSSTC
# Text: (§2) The transparency of the prepared hydrogel in the visible light range of 380 nm-780 nm is detected by UV-Vis spectroscopy (Lambda 35 UV/Vis Spectrometer, Perkin-Elmer). […] Therefore, we conducted microscale thermophoresis experiments to determine their binding affinity to recombinant human Insulin-like Growth Factor-I Receptor (rhIGF-1R).
# rhIGF-1R was labeled with the fluorescent dye NT-647 using a Monolith NT™ Protein Labelling Kit (cysteine-reactive) (NanoTemper Technologies, Germany). PBS buffer containing 0.05% Tween 20 (pH 7.4) was used as the assay buffer. For the interaction experiments of fluorescent proteins with Compound 1, 2, 3or 4, the concentration of labeled proteins were kept constant, while the concentration of Compound 1, 2, 3or 4 varied from 0.054 nM to 2 μM. Then, the solution of fluorescent proteins was mixed with solutions containing different concentrations of Compound 1, 2, 3or 4 at 1:1 volume ratio. After a short incubation time, the samples were loaded into MST NT.115 standard glass capillaries and the analysis was performed using the Monolith NT.115 system (NanoTemper Technologies, Germany). The KD value was calculated using the NanoTemper software package.
# [3] = tested on: peritoneal macrophages; assay: Macrophage polarization and LPS-induced inflammation in vitro; type: cell-based, mouse
# Protocol: (§3) Human aortic smooth muscle cells (HASMCs) were cultured in a completed DMEM F12 medium (10% fetal bovine serum, 50 μg/mL penicillin, and 50 μg/mL streptomycin). Peritoneal macrophages were cultured in complete RPMI1640 medium (10% fetal bovine serum, 50 μg/mL penicillin, 50 μg/mL streptomycin and 2 mM glutamine). HASMCs or peritoneal macrophages were seeded on a 6-well plate at the density of 3×10^5 cells per well before treatment. […] After treatment, total cellular proteins were extracted from peritoneal macrophages for determination of ABCA1 and ABCG1 by western blot, as previously described. Expression of CD68, SM22α, iNOS, CD206, TNF-α, IL-6, and IL-1β mRNA in HASMCs or macrophages was determined by quantitative real-time polymerase chain reaction (qRT-PCR) with total RNA extracted from cells and the primers listed in Table 1 and normalized to GAPDH mRNA levels in the corresponding samples.
# [4] = tested on: ABCA1 and ABCG1 in peritoneal macrophages; assay: ABCA1 and ABCG1 expression by western blot; type: cell-based, mouse; settings: 10 nM overnight, versus GAPDH, n=5
# Protocol: as §3
# [5] = tested on: peritoneal macrophages from apoE-/- mice; assay: Foam cell formation, Oil Red O staining after ox-LDL; type: cell-based, mouse; settings: same molar concentration, after exposure to ox-LDL, >10 lipid droplets per cell, n=5
# Protocol: Human aortic smooth muscle cells (HASMCs) were cultured in a completed DMEM F12 medium (10% fetal bovine serum, 50 μg/mL penicillin, and 50 μg/mL streptomycin). Peritoneal macrophages were cultured in complete RPMI1640 medium (10% fetal bovine serum, 50 μg/mL penicillin, 50 μg/mL streptomycin and 2 mM glutamine). HASMCs or peritoneal macrophages were seeded on a 6-well plate at the density of 3×10^5 cells per well before treatment. […] To assess foam cell formation in vitro, peritoneal macrophages collected from apoE^-/- mice were plated on cover slips in 12-well plates. Subsequently, induction and determination of foam cells was conducted as previously described.
# [6] = tested on: apoE-/- mice; assay: Inflammation and macrophage phenotype in vivo (aortic root immunofluorescence, serum ELISA, aorta qRT-PCR); set-up: species or system mouse
# Text: as §1
# [7] = tested on: atherosclerotic lesions in apoE-/- mice; assay: Atherosclerotic lesion formation, Oil Red O staining; type: in vivo, mouse; settings: high-fat diet 16 weeks, s.c. 100 μL of 1 μM weekly, n=15
# Protocol: Male apoE^‑/‑ mice (~22 g bodyweight, ~8 weeks old) were purchased from the Beijing Vital River Laboratory Animal Technology Co., Ltd, which were used to set up the atherosclerotic model, as previously described[66]. ApoE^-/- mice were randomly assigned into six groups (15 per group) and fed with HFD (21% fat plus 0.5% cholesterol; Mediscience, Ltd, Jiangsu, China; Cat No. MD12015A) for 16 weeks. ApoE^-/- mice in the different groups were subcutaneously injected with either saline (100 µL, n=15), IGF-1 protein (1 μM, 100 μL, n=15), H1 (1 μM, 100 μL, n=15), H2 (1 μM, 100 μL, n=15), H3 (1 μM, 100 μL, n=15) or H4 (1 μM, 100 μL, n=15) weekly. At the end of the experiment, all mice were euthanatized by an overdose of 2,2,2-tribromoethanol (640 mg/kg, IP injection), followed by collection of aortas, blood, and peritoneal macrophages. […] The en face aortas were used to prepare aortic root cross sections followed by determination of en face and sinus lesions with Oil Red O staining. All the images were obtained with a microscope and quantified lesion areas in en face aorta by a computer-assisted image analysis protocol (Photoshop CS6).
# [8] = tested on: peritoneal macrophage; assay: Cholesterol efflux of peritoneal macrophage; type: cell-based, mouse; settings: n=5, Figures S14 and S15B
# Protocol: page 8: Figure S14. Cholesterol efflux of peritoneal macrophage were assessed after treatment as indicated, n=5. […] Figure S15. Effects of Npx and IGF-1 mimetic peptide on inflammation and cholesterol efflux. (A) qRT-PCR analysis of TNFα and IL-1β in macrophage after indicated treatment, n=5. (B) Cholesterol efflux of peritoneal macrophage were assessed after treatment as indicated, n=5. […]
# [9] = tested on: HASMCs; assay: VSMC switch to macrophage-like phenotype (αSMA immunofluorescence, CD68 and SM22α qRT-PCR); type: cell-based, human; settings: n=5
# Protocol: as §3
# [10] = tested on: receptor of IGF-1; settings: earlier report of the same authors; cited from earlier work
# Text: Natural and recombinant human IGF-1 proteins (rhIGF-1) are limited in short half-lifes in biological systems and poor tissue retention. […] The C domain of […] in IGF-1 regulates its receptor binding and directly affects the biological activity of IGF-1. Nishida et al. reported that the C-domain of IGF-1 can promote the healing of corneal epithelial wounds. They screened a series of 12-amino acids of GST fusion protein and obtained mutants whose various ...
# [11] = TEM of nanofibers in hydrogels; type: physicochemical; settings: hydrogel in PBS, 0.5 wt%
# [12] = Transparency of hydrogels by UV-Vis spectroscopy; type: physicochemical; settings: visible light range 380 nm-780 nm, hydrogel in PBS pH 7.4, 0.5 wt%
# Text: as §2
# [13] = Rheometer mechanical properties of hydrogels; type: physicochemical; settings: hydrogel 1.0 wt%
# Protocol: We then used a rheometer to characterize the mechanical properties of the hydrogels. […] The storage modulus (G') of the four hydrogels was approximately an order of magnitude higher than their loss modulus (G''), which indicated the formation of true gels. ApoE^-/- mice were then subcutaneously (s.c.) injected with 100 μL of the different hydrogels or natural IGF-1 protein solution per week and simultaneously fed a high-fat diet for 16 weeks. Atherosclerotic lesion formation was assessed after 16 weeks.
# [14] = male apoE-/- mice, HFD 16 weeks, s.c. weekly, mean ± SD, n=15
# [15] = double immunofluorescence staining with MOMA2, n=15
# [16] = peritoneal macrophages, LPS 100 ng·mL^-1 2 h then 10 nM overnight, immunofluorescent staining, versus control, n=5
# [17] = 10 nM with ox-LDL 50 µg·mL^-1 overnight, qRT-PCR, versus ox-LDL-treated cells
molecule,measurement,setting,value
"COc1ccc2cc([C@H](C)C(=O)N[C@H](Cc3ccccc3)C(=O)N[C@H](Cc3ccccc3)C(=O)NCC(=O)N[C@@H](CO)C(=O)N[C@@H](CO)C(=O)N[C@@H](CO)C(=O)N[C@@H](CCCNC(=N)N)C(=O)O)ccc2c1 [Compound H1, Npx-^DF^DFGSSSR] (Naproxen-[dF][dF]GSSSR-OH)",BW,"[1]; mouse, in vivo, sc, SD",26.49 ± 2.14 g
"COc1ccc2cc([C@H](C)C(=O)N[C@@H](Cc3ccccc3)C(=O)N[C@@H](Cc3ccccc3)C(=O)NCC(=O)N[C@@H](CO)C(=O)N[C@@H](CO)C(=O)N[C@@H](CO)C(=O)N[C@@H](CCCNC(=N)N)C(=O)O)ccc2c1 [Compound H2, Npx-FFGSSSR] (Naproxen-FFGSSSR-OH)",BW,"[1]; mouse, in vivo, sc, SD",25.55 ± 2.31 g
"N=C(N)NCCC[C@H](NC(=O)[C@H](CO)NC(=O)[C@H](CO)NC(=O)[C@H](CO)NC(=O)CNC(=O)[C@H](Cc1ccccc1)NC(=O)[C@H](Cc1ccccc1)NC(=O)Cc1ccc2ccccc2c1)C(=O)O [Compound H3, Nap-FFGSSSR] ({Acetyl(2-naphthyl)}-FFGSSSR-OH)",Kd,[2],230 nM
same,BW,[1]; [14],26.79 ± 1.77 g
"COc1ccc2cc([C@H](C)C(=O)O)ccc2c1 [Npx, naproxen, reference compound]","LPS-induced inflammation, components compared (Figure S15A)","[3]; macrophage in presence of LPS, qRT-PCR of TNF and IL-1, n=5",partly blocked LPS-induced inflammation
Insulin-like growth factor (IGF)-1 [IGF-1],expression of ABCA1 and ABCG1 in macrophages,[4],significantly enhanced expression
same,number of foam cells,[5],22.0%
same,Arg1 expression in aortic root macrophages in vivo,[6]; [15],induced the expression of Arg1
same,CCR7 expression in aortic root macrophages in vivo,[6]; [15],inhibited the expression of CCR7
same,expression of proinflammatory cytokines in aortas,"[6]; qRT-PCR of TNF-α and IL-6, n=8",reduced the expression of these cytokines
same,HDL-C,[1]; [14],2.35 ± 0.89 mM
same,LDL-C,[1]; [14],4.08 ± 1.42 mM
same,TG (triglyceride),[1]; [14],0.51 ± 0.13 mM
same,Total-C (serum total cholesterol),[1]; [14],15.47 ± 2.76 mM
same,BW,"[1]; mouse, in vivo, sc, SD",25.04 ± 1.83 g
same,decrease in plaque size at the aortic root,[7],~ 53%
same,"reduction in lesion area, en face aorta",[7],~ 42%
same,Arg1 expression in macrophages in vitro,[3]; [16],more Arg1
same,CCR7 expression in macrophages in vitro,[3]; [16],expressed less CCR7
same,cholesterol efflux from peritoneal macrophage,[8],more effective than Npx
same,α-SMA expression in VSMCs,"[9]; 10 nM overnight, immunofluorescent staining, versus control",expressed more α-SMA
same,CD68 expression in VSMCs,[9]; [17],less CD68
same,SM22α expression in VSMCs,[9]; [17],more SM22α
Nap-FFGGYGSSSRRAPQT [self-assembling peptide reported earlier by the authors],binding affinity to the receptor of IGF-1,[10],high binding affinity
"Nap-FFGSRSS [Compound H4, control without naproxen and with a scrambled tetrapeptide of SSSR]",number of foam cells,[5],almost no decrease
same,dissociated constant (KD) with rhIGF-1R,[2],Non KD
same,dissociated constant (KD) with rhIGF-1R,[2]; listed as Compound 4,no binding at all
same,HDL-C,[1]; [14],2.34 ± 0.76 mM
same,LDL-C,[1]; [14],4.45 ± 1.23 mM
same,TG (triglyceride),[1]; [14],0.52 ± 0.08 mM
same,Total-C (serum total cholesterol),[1]; [14],16.63 ± 2.05 mM
same,BW,"[1]; mouse, in vivo, sc, SD",26.81 ± 2.06 g
same,diameter of entangled nanofibers,[11],~17.3 nm
same,transparency (mean transmittance) of hydrogel,[12],71.08%
same,storage modulus (G'),[13],100 Pa
